Results on 20 molecules are retold here after article PMC6831664, “Synthesis of new isoquinoline-base-oxadiazole derivatives as potent inhibitors of thymidine phosphorylase and molecular docking study” (Scientific Reports, 2019).

Molecules are shown by their SMILES.

The target of the first experiment is thymidine phosphorylase (Escherichia coli, UniProt P07650). Description: In vitro thymidine phosphorylase inhibition (spectrophotometric, absorbance at 290 nm). It is filed as biochemical, human and E. coli.
thymidine phosphorylase, sequence (P07650 whole entry): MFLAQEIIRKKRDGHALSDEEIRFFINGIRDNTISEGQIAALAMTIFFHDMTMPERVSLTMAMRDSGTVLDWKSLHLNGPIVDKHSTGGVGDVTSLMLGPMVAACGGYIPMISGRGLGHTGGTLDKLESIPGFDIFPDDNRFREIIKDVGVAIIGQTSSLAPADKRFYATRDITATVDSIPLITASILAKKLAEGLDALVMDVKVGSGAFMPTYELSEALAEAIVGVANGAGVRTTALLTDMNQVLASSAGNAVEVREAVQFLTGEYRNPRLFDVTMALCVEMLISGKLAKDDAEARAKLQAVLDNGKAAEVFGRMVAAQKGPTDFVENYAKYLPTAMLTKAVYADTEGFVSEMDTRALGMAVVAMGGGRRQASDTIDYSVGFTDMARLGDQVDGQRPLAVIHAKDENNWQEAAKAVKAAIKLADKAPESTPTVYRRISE
Conditions: not given
On the procedure:
The desired activity of thymidine phosphorylase under this protocol was carried out with slight modification in the method described by Krenitsky and Bush in 1979[46],[47]. Here, TP activity was determined through spectrophotometrically by absorbance at 290 nm. Although the whole reaction mixture of 200 µL have the limit of 145 µL of potassium phosphate buffer (pH 7.4, 50 mM), 30 µL of enzyme (human and E. coli) by concentration 0.05 and 0.002 U, distinectly, followed by incubation through 5 µL of test materials (0.075, 0.15, 0.3 and 0.5 mM) at 25 °C for 10 min in triplet reader. Subsequently, pre-read at 290 nm was taken to conclude the absorbance of concern substrate particles. The crave substrate “thyimidin” (20 µL, 1.5 mM), was then dissolved in the buffer (potassium phosphate), followed by instant addition to plate with constant read after every 10, 20 and 30 min in micro plate reader (spectra max, molecular devices, CA, USA). All the assay were implemented in triplicate under positive control of 7-Deazxanthine.
With `O=C(NN=Cc1c2ccccc2cc2ccccc12)c1ccc(-c2nnc(-c3cc4ccccc4cn3)o2)cc1` [analogue 2, N’-(anthracen-9-ylmethylene)-4-(5-(isoquinolin-3-yl)-1,3,4-oxadiazol-2-yl)benzohydrazide], the “inhibitory potential compared with the standard 7-Deazaxanthine (in words)” value is “good inhibitory activity”.

Consider `COc1ccc(C=NNC(=O)c2ccc(-c3nnc(-c4cc5ccccc5cn4)o3)cc2)c(OC)c1OC` [analogue 19, 4-(5-(isoquinolin-3-yl)-1,3,4-oxadiazol-2-yl)-N’-(2,3,4-trimethoxybenzylidene)benzohydrazide], for which the “inhibitory potential compared with the standard 7-Deazaxanthine (in words)” value was “good inhibitory activity”.

As for `COc1cc(C=NNC(=O)c2ccc(-c3nnc(-c4cc5ccccc5cn4)o3)cc2)cc(OC)c1OC` [analogue 15, 4-(5-(isoquinolin-3-yl)-1,3,4-oxadiazol-2-yl)-N’-(3,4,5-trimethoxybenzylidene)benzohydrazide], the “inhibitory potential compared with the standard 7-Deazaxanthine (in words)” value is reported as “good inhibitory activity”.

Still in this experiment, the particulars now being: read-out: IC50 value, thymidine phosphorylase inhibitory activity.
As for `COc1cccc(C=NNC(=O)c2ccc(-c3nnc(-c4cc5ccccc5cn4)o3)cc2)c1O` [analogue 18, N’-(2-hydroxy-3-methoxybenzylidene)-4-(5-(isoquinolin-3-yl)-1,3,4-oxadiazol-2-yl)benzohydrazide], the IC50 stood at 7.3 ± 0.2 µM.

On to `O=C(NN=Cc1c2ccccc2cc2ccccc12)c1ccc(-c2nnc(-c3cc4ccccc4cn3)o2)cc1` [analogue 2, N’-(anthracen-9-ylmethylene)-4-(5-(isoquinolin-3-yl)-1,3,4-oxadiazol-2-yl)benzohydrazide], for which the IC50 is 39.4 ± 0.9 µM.

Take `Nc1cccc(C=NNC(=O)c2ccc(-c3nnc(-c4cc5ccccc5cn4)o3)cc2)c1` [analogue 10, N’-(3-aminobenzylidene)-4-(5-(isoquinolin-3-yl)-1,3,4-oxadiazol-2-yl)benzohydrazide]: the concentration for half-maximal inhibition (IC50) amounted to 1.1 ± 0.1 µM.

As to `O=C(NN=Cc1cc(Cl)cc(Cl)c1O)c1ccc(-c2nnc(-c3cc4ccccc4cn3)o2)cc1` [analogue 9, N’-(3,5-dichloro-2-hydroxybenzylidene)-4-(5-(isoquinolin-3-yl)-1,3,4-oxadiazol-2-yl)benzohydrazide], the IC50 is 2.4 ± 0.1 µM.

In the case of `N#Cc1ccc(C=NNC(=O)c2ccc(-c3nnc(-c4cc5ccccc5cn4)o3)cc2)cc1` [analogue 17, N’-(4-cyanobenzylidene)-4-(5-(isoquinolin-3-yl)-1,3,4-oxadiazol-2-yl)benzohydrazide], the IC50 worked out at 22.1 ± 0.5 µM.

Consider `O=C(NN=Cc1ccccc1[N+](=O)[O-])c1ccc(-c2nnc(-c3cc4ccccc4cn3)o2)cc1` [analogue 1, 4-(5-(isoquinolin-3-yl)-1,3,4-oxadiazol-2-yl)-N’-(2-nitrobenzylidene)benzohydrazide], for which the half-maximal inhibitory concentration (IC50) is 6.3 ± 0.2 µM.

Regarding `N#Cc1cccc(C=NNC(=O)c2ccc(-c3nnc(-c4cc5ccccc5cn4)o3)cc2)c1` [analogue 14, N’-(3-cyanobenzylidene)-4-(5-(isoquinolin-3-yl)-1,3,4-oxadiazol-2-yl)benzohydrazide], the IC50 was 27.4 ± 0.7 µM.

As for `COc1cc(C=NNC(=O)c2ccc(-c3nnc(-c4cc5ccccc5cn4)o3)cc2)cc(OC)c1O` [analogue 11, N’-(4-hydroxy-3,5-dimethoxybenzylidene)-4-(5-(isoquinolin-3-yl)-1,3,4-oxadiazol-2-yl)benzohydrazide], the IC50 is 5.3 ± 0.2 µM.

Regarding `COc1cc(C=NNC(=O)c2ccc(-c3nnc(-c4cc5ccccc5cn4)o3)cc2)ccc1O` [analogue 13, N’-(4-hydroxy-3-methoxybenzylidene)-4-(5-(isoquinolin-3-yl)-1,3,4-oxadiazol-2-yl)benzohydrazide], the IC50 was 6 ± 0.2 µM.

In the case of `COc1ccc(C=NNC(=O)c2ccc(-c3nnc(-c4cc5ccccc5cn4)o3)cc2)c(OC)c1OC` [analogue 19, 4-(5-(isoquinolin-3-yl)-1,3,4-oxadiazol-2-yl)-N’-(2,3,4-trimethoxybenzylidene)benzohydrazide], the concentration for half-maximal inhibition (IC50) came to 54.6 ± 1.5 µM.

On to `COc1cc(C=NNC(=O)c2ccc(-c3nnc(-c4cc5ccccc5cn4)o3)cc2)cc(OC)c1OC` [analogue 15, 4-(5-(isoquinolin-3-yl)-1,3,4-oxadiazol-2-yl)-N’-(3,4,5-trimethoxybenzylidene)benzohydrazide], for which the IC50 was 47.3 ± 1.2 µM.

In the case of `COc1ccc(C=NNC(=O)c2ccc(-c3nnc(-c4cc5ccccc5cn4)o3)cc2)cc1O` [analogue 12, N’-(3-hydroxy-4-methoxybenzylidene)-4-(5-(isoquinolin-3-yl)-1,3,4-oxadiazol-2-yl)benzohydrazide], the IC50 is 4.6 ± 0.1 µM.

Take `N#Cc1ccccc1C=NNC(=O)c1ccc(-c2nnc(-c3cc4ccccc4cn3)o2)cc1` [analogue 16, N’-(2-cyanobenzylidene)-4-(5-(isoquinolin-3-yl)-1,3,4-oxadiazol-2-yl)benzohydrazide]: the IC50 came out at 18.5 ± 0.5 µM.

As for `CN(C)c1ccc(C=NNC(=O)c2ccc(-c3nnc(-c4cc5ccccc5cn4)o3)cc2)cc1` [analogue 8, N’-(4-(dimethylamino)benzylidene)-4-(5-(isoquinolin-3-yl)-1,3,4-oxadiazol-2-yl)benzohydrazide], the IC50 came out at 18.8 ± 0.5 µM.

In the case of `CC(=NNC(=O)c1ccc(-c2nnc(-c3cc4ccccc4cn3)o2)cc1)c1ccc([N+](=O)[O-])cc1` [analogue 5, 4-(5-(isoquinolin-3-yl)-1,3,4-oxadiazol-2-yl)-N’-(1-(4-nitrophenyl)ethylidene)benzohydrazide], the half-inhibitory concentration (IC50) was 14.6 ± 0.4 µM.

Consider `O=C(NN=Cc1ccc(O)c(O)c1O)c1ccc(-c2nnc(-c3cc4ccccc4cn3)o2)cc1` [analogue 20, 4-(5-(isoquinolin-3-yl)-1,3,4-oxadiazol-2-yl)-N’-(2,3,4-trihydroxybenzylidene)benzohydrazide], for which the IC50 came out at 1.1 ± 0.05 µM.

Regarding `COc1ccc(Br)cc1C=NNC(=O)c1ccc(-c2nnc(-c3cc4ccccc4cn3)o2)cc1` [analogue 7, N’-(5-bromo-2-methoxybenzylidene)-4-(5-(isoquinolin-3-yl)-1,3,4-oxadiazol-2-yl)benzohydrazide], the concentration for half-maximal inhibition (IC50) turned out to be 36.7 ± 0.9 µM.

As to `O=C(NN=Cc1ccc(Cl)cc1)c1ccc(-c2nnc(-c3cc4ccccc4cn3)o2)cc1` [analogue 6, N’-(4-chlorobenzylidene)-4-(5-(isoquinolin-3-yl)-1,3,4-oxadiazol-2-yl)benzohydrazide], the IC50 is 16.4 ± 0.5 µM.

Regarding `O=C(NN=Cc1ccc(COc2ccccc2)cc1)c1ccc(-c2nnc(-c3cc4ccccc4cn3)o2)cc1` [analogue 4, 4-(5-(isoquinolin-3-yl)-1,3,4-oxadiazol-2-yl)-N’-(4-(phenoxymethyl)benzylidene)benzohydrazide], the IC50 came out at 28.3 ± 0.5 µM.

Consider `O=C(NN=Cc1ccc(Cl)cc1Cl)c1ccc(-c2nnc(-c3cc4ccccc4cn3)o2)cc1` [analogue 3, N’-(2,4-dichlorobenzylidene)-4-(5-(isoquinolin-3-yl)-1,3,4-oxadiazol-2-yl)benzohydrazide], for which the IC50 is 3.3 ± 0.1 µM.
